Experimental findings from publication PMC7318222, “A Family of Water‐Immiscible, Dipolar Aprotic, Diamide Solvents from Succinic Acid” (Chemsuschem, 2020) are described below.

One test deals with Nrf2. Description: Nrf2 CALUX assay (oxidative stress). As to conditions: cell signaling pathway assay, 24 h exposure. It is filed as cell-based, human. Also on record: key: –: no effect observed up to the highest test concentration. The source says:
Six of the CALUX assays (TCF through p53) detect activation of several cellular signaling pathways, which are indicative of general stress and acute toxicity, but also a range of more specific types of toxicity, including reproductive toxicity. […]
DCM ≥99.5%, chloroform ≥99.5%, DMSO ≥99.0% were purchased from VWR. […]
Polyarylethersulfone of 55,000 Da were obtained from INGE.BASF, Germany. The CALUX cell lines have been described previously.[1] They are based on human U2-OS cells (ATCC, HTB-96) stably transfected with an expression construct for the full-length human receptor under investigation, and a reporter construct consisting of multimerized responsive elements for the cognate receptor coupled to a minimal promoter element (TATA) and a luciferase gene. Cells were maintained as described previously,[2] using cell culture media and supplements from Fisher Scientific as described in the experimental procedures section. […]
(§1) In vitro reporter gene assays
(§2) The automated CALUX assays were carried out similarly as described earlier,[12] with some adaptations. In brief, the assay was performed in CO2 independent medium (Fisher Scientific, […]
(§3) supplement (Fisher Scientific, 11574466), 10 U/mL penicillin and 10 µg/mL streptomycin. A cell suspension in assay medium was made of 1 × 10^5cells/mL, and white 384-wells plates were seeded with 30 µl cell suspension/well. After 24 h, exposure medium was prepared. A dilution series in 0.5log unit increments of each test compound (in DMSO) was added to a 96-wells plate containing assay medium (2% v/v). Of this exposure mixture, 30 µl was added to the assay plates containing the CALUX cells, resulting in a final DMSO concentration of 1%. Additionally, DMSO blanks and a full dose response curve of the relevant reference compound were included on each plate. All samples were tested in triplicate. The preparation of the compound dilution series as well as the exposure of the cells were performed on a Hamilton StarLET liquid handling robot coupled to a Cytomat incubator.
(§4) Directly after exposure, plates were sealed with non-breathing plate seals (Plate sealer, easy seal transparent; Greiner-Bio-One, 676001). After 24 h the exposure medium was removed using an EL406 washer-dispenser (BioTek) and 10 µl/well triton lysisbuffer was added by the EL406.
Subsequently, the luciferase signal was measured in a luminometer (InfinitePro coupled to a Connect Stacker, both TECAN). In order to be able to detect receptor antagonism, several assays were also performed in antagonistic mode. The assay procedure was as described above, with the only exception that the EC50 concentration of the reference agonist was present during the exposure.
The luminometer data was analysed as follows; the average of the triplicate wells was determined, and the average blank (DMSO) value was subtracted. For receptor-based assays the maximum response elicited by the reference compound was set to 100% (full receptor- or pathway activation), and the other values were scaled accordingly. GraphPad Prism was used to fit a sigmoidal curve through the data (four parameters, variable slope). […] For antagonist- and cytotoxicity experiments, PC20 values were determined instead, which was defined as the concentration where the test compound causes a 20% decrease in the basal signal, which was […]
curve, the signal induction above background (DMSO) was determined, and the concentration where the compound elicited a 1.5-fold increase above background was used as LEC.

A further test deals with T1, PPARα (Homo sapiens, UniProt Q07869).
T1 construct: expression construct for the full-length human receptor under investigation; expressed in transfected cells; host or cells: human U2-OS cells (ATCC HTB-96), stably transfected
T1 sequence (Q07869 1-468): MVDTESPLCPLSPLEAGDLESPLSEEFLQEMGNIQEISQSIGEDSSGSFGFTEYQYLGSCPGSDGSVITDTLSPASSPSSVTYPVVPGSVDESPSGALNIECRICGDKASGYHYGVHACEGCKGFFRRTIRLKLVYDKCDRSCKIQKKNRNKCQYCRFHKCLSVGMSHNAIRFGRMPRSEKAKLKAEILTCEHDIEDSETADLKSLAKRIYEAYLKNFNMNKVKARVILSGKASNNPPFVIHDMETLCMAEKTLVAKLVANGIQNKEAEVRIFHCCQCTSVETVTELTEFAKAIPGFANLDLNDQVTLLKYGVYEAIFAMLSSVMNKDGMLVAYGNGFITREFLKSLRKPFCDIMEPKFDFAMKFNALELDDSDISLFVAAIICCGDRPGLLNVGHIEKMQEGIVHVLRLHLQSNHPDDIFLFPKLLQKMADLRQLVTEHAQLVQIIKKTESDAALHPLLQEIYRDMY
Description: PPARα CALUX reporter gene assay. The note with it: PC10, 24 h exposure. Also on record: key: –: no effect observed up to the highest test concentration. It is filed as cell-based.
Source text: Succinyl chloride (2 M soln. in dichloromethane), N-methylbutylamine 90%, N-ethylbutylamine 95%, Dibutylamine 99% were purchased from TCI chemicals. K60 silica was purchased from Merck chemicals. Succinic acid ≥99.0%, N-methylpyrrolidinone 99.0%, 1-bromooctane ≥97.0%, 1-methylimidazole 99.0%, iodobenzene 99.9%, methylacrylate 99.9%, palladium(II) acetate ≥99.9% trace metals basis, triethylamine ≥99.0%, trimesic acid 95%, copper(II) nitrate trihydrate ≥99.0%, 2-methylimidazole 99.0%, zinc(II) nitrate hexahydrate ≥99.0%, para-cymene 99.0%, 1,4-dioxane 99.8% (anhydrous), 4-nitroaniline ≥99.0%, 1-octanol ≥99.0%, diglyme ≥99.0%, DMSO-d6 (99.8% D) and chloroform-d (99.8% D) were purchased from Sigma-Aldrich. Toluene ≥99.0%, hexane ≥99.5%, DCM ≥99.5%, chloroform ≥99.5%, DMSO ≥99.0% were purchased from VWR. N,N-diethyl-4-nitroaniline ≥98.0% was purchased from Alfa Aeser. Cyrene was supplied by Circa group. N-butylpyrrolidinone was supplied by Eastman chemicals. N,N-dimethylformamide 99.9% and N,N-dimethylacetamide 99.9% were purchased from Fischer. The flakes of Ultrason® E3020 P Polyarylethersulfone of 55,000 Da were obtained from INGE.BASF, Germany. The CALUX cell lines have been described previously.[1] They are based on human U2-OS cells (ATCC, HTB-96) stably transfected with an expression construct for the full-length human receptor under investigation, and a reporter construct consisting of multimerized responsive elements for the cognate receptor coupled to a minimal promoter element (TATA) and a luciferase gene. Cells were maintained as described previously,[2] using cell culture media and supplements from Fisher Scientific as described in the experimental procedures section. […]
as §1, §2, §3, §4
Subsequently, the luciferase signal was measured in a luminometer (InfinitePro coupled to a Connect Stacker, both TECAN). In order to be able to detect receptor antagonism, several assays were also performed in antagonistic mode. […]
The luminometer data was analysed as follows; the average of the triplicate wells was determined, and the average blank (DMSO) value was subtracted. […]
In general terms: In a reporter assay the amount or activity of a reporter protein is the signal.

With `CCCCN(CC)C(=O)CCC(=O)N(CC)CCCC` [EBSA, N,N′‐diethyl‐N,N′‐dibutylsuccindiamide], in the test with Nrf2, the “LEC Nrf2” value is “–”. In addition, the “LEC PPARα” value on PPARα was “–”.

`CCCCN(C)C(=O)CCC(=O)N(C)CCCC` [MBSA, N,N′‐dimethyl‐N,N′‐dibutylsuccindiamide]: in the test with Nrf2, the “LEC Nrf2” value is reported as −2.9 Log M. For the same compound, at PPARα, the “LEC PPARα” value is listed as “–”.

Consider `CCCCN1CCCC1=O` [NBP, N‐Butylpyrrolidinone, reference compound], for which, in the test with Nrf2, the “LEC Nrf2” value is listed as “–”. The “LEC PPARα” value at PPARα is listed as “–”.

As for `CN1CCCC1=O` [NMP, N‐methyl‐2‐pyrrolidone, reference compound], the “LEC Nrf2” value with Nrf2 is reported as “–”. Also, the “LEC PPARα” value at PPARα was “–”.

As to `CCCCN(CCCC)C(=O)CCC(=O)N(CCCC)CCCC` [TBSA, N,N,N′,N′‐tetrabutylsuccindiamide], the “LEC Nrf2” value with Nrf2 was “–”. Further, the “LEC PPARα” value at PPARα was “–”.
